Measured values reported in the supplement of paper PMC10627819.

Columns and labels:
B. subtilis 168 [1] = assay: fitness (endpoint OD595 vs no drug) (fraction); higher = more growth
Outline: (§1)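 In 384-well plates at 37 °C, cultures began at OD595 0.01 in 30 µl, with 55 µl used for S. pneumoniae. OD595 readings every 30 min for 14 h were corrected by the first reading. Fitness divides the stationary-phase transition optical density by the robust mean of no-drug control wells. The result is capped at 1.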

S. pneumoniae D39V [2] = assay: as above
Outline: as §1

B. subtilis 168 [3] = assay: Bliss interaction score (quartile over a dose matrix) (fitness difference); higher = more antagonism (negative = synergy)
Outline: (§2)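 At entry into stationary phase, OD595 was recorded and divided by the robust mean of the no-drug wells on that plate, with any value above 1 set to 1. This gives the fitness measure used throughout. Single-drug fitness was inferred from combination data, and the Bliss score, observed minus product-expected fitness, is shown as quartiles across technical, biological and donor/recipient replicates.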

S. aureus Newman = assay: as above
Outline: as §2

S. aureus DSM 20231 = assay: as above
Outline: as §2

S. pneumoniae D39V [4] = assay: as above
Outline: as §2
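Throughout, for Bliss interaction score (quartile over a dose matrix): first quartile when negative (synergy) and third quartile when positive (antagonism).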

CO/N=C(\C(=O)N[C@@H]1C(=O)N2C(C(=O)O)=C(COC(C)=O)CS[C@H]12)c1csc(N)n1 [Cefotaxime] + CN(C)C(=O)C(CCN1CCC(O)(c2ccc(Cl)cc2)CC1)(c1ccccc1)c1ccccc1 [Loperamide]
fitness, one replicate
Details	first compound 0.0018 µg/mL	first compound 0.0035 µg/mL	first compound 0.007 µg/mL	first compound 0.00775 µg/mL	first compound 0.0155 µg/mL	first compound 0.031 µg/mL
B. subtilis 168 [1], partner 25 µg/mL	–	–	–	0.406	0.0668	0.0762
B. subtilis 168 [1], partner 50 µg/mL	–	–	–	0.0446	0.0311	0.0295
B. subtilis 168 [1], partner 100 µg/mL	–	–	–	0.0412	0.0228	0.0243
S. pneumoniae D39V [2], partner 68.57 µg/mL	≥ 1	0.999	0.761	–	–	–

Details	fitness
B. subtilis 168 [1], first compound 0.5 µg/mL, partner 25 µg/mL	0.0401
B. subtilis 168 [1], first compound 0.5 µg/mL, partner 50 µg/mL	0.0447
B. subtilis 168 [1], first compound 0.5 µg/mL, partner 100 µg/mL	0.0339
B. subtilis 168 [1], first compound 1 µg/mL, partner 25 µg/mL	0.0257
B. subtilis 168 [1], first compound 1 µg/mL, partner 50 µg/mL	0.0406
B. subtilis 168 [1], first compound 1 µg/mL, partner 100 µg/mL	0.032
B. subtilis 168 [1], first compound 2 µg/mL, partner 25 µg/mL	0.0689
B. subtilis 168 [1], first compound 2 µg/mL, partner 50 µg/mL	0.0803
B. subtilis 168 [1], first compound 2 µg/mL, partner 100 µg/mL	0.0709
S. pneumoniae D39V [2], first compound 0.0018 µg/mL, partner 17.14 µg/mL	0.977
S. pneumoniae D39V [2], first compound 0.0018 µg/mL, partner 20 µg/mL	0.988
S. pneumoniae D39V [2], first compound 0.0018 µg/mL, partner 34.28 µg/mL	0.984
S. pneumoniae D39V [2], first compound 0.0018 µg/mL, partner 40 µg/mL	≥ 1
S. pneumoniae D39V [2], first compound 0.0018 µg/mL, partner 80 µg/mL	≥ 1
S. pneumoniae D39V [2], first compound 0.0035 µg/mL, partner 17.14 µg/mL	0.981
S. pneumoniae D39V [2], first compound 0.0035 µg/mL, partner 20 µg/mL	0.984
S. pneumoniae D39V [2], first compound 0.0035 µg/mL, partner 34.28 µg/mL	0.935
S. pneumoniae D39V [2], first compound 0.0035 µg/mL, partner 40 µg/mL	0.977
S. pneumoniae D39V [2], first compound 0.0035 µg/mL, partner 80 µg/mL	0.956
S. pneumoniae D39V [2], first compound 0.007 µg/mL, partner 20 µg/mL	0.898
S. pneumoniae D39V [2], first compound 0.007 µg/mL, partner 40 µg/mL	0.842
S. pneumoniae D39V [2], first compound 0.007 µg/mL, partner 80 µg/mL	0.262

Details	Bliss interaction score
B. subtilis 168 [3]	-0.0982
S. aureus DSM 20231	-0.0602
S. aureus Newman	0.0269
S. pneumoniae D39V [4]	-0.0572

C[C@H]1c2cccc(O)c2C(=O)C2=C(O)[C@]3(O)C(=O)C(C(N)=O)=C(O)[C@@H](N(C)C)[C@@H]3[C@@H](O)[C@@H]21 [Doxycycline] + CN(N=O)C(=O)N[C@@H](C=O)[C@@H](O)[C@H](O)[C@H](O)CO [Streptozotocin]
Details	fitness
B. subtilis 168 [1], first compound 0.02 µg/mL, partner 0.15 µg/mL	0.917
B. subtilis 168 [1], first compound 0.02 µg/mL, partner 0.3 µg/mL	0.97
B. subtilis 168 [1], first compound 0.02 µg/mL, partner 0.6 µg/mL	0.901
B. subtilis 168 [1], first compound 0.04 µg/mL, partner 0.15 µg/mL	0.773
B. subtilis 168 [1], first compound 0.04 µg/mL, partner 0.3 µg/mL	0.789
B. subtilis 168 [1], first compound 0.04 µg/mL, partner 0.6 µg/mL	0.786
B. subtilis 168 [1], first compound 0.08 µg/mL, partner 0.3 µg/mL	0.538
B. subtilis 168 [1], first compound 0.08 µg/mL, partner 0.6 µg/mL	0.531
S. pneumoniae D39V [2], first compound 0.0155 µg/mL, partner 1.2 µg/mL	0.919
S. pneumoniae D39V [2], first compound 0.0155 µg/mL, partner 2.4 µg/mL	0.896
S. pneumoniae D39V [2], first compound 0.0155 µg/mL, partner 4.8 µg/mL	0.914
S. pneumoniae D39V [2], first compound 0.031 µg/mL, partner 1.2 µg/mL	0.837
S. pneumoniae D39V [2], first compound 0.031 µg/mL, partner 2.4 µg/mL	0.847
S. pneumoniae D39V [2], first compound 0.031 µg/mL, partner 4.8 µg/mL	0.822
S. pneumoniae D39V [2], first compound 0.062 µg/mL, partner 1.2 µg/mL	0.754
S. pneumoniae D39V [2], first compound 0.062 µg/mL, partner 2.4 µg/mL	0.761
S. pneumoniae D39V [2], first compound 0.062 µg/mL, partner 4.8 µg/mL	0.71

fitness, S. pneumoniae D39V [2], one replicate
Details	partner 1.2 µg/mL	partner 2.4 µg/mL	partner 4.8 µg/mL
first compound 0.003875 µg/mL	0.989	0.971	0.984
first compound 0.00775 µg/mL	0.926	0.913	0.933

Details	Bliss interaction score
B. subtilis 168 [3]	0.0094
S. aureus DSM 20231	0.0373
S. aureus Newman	0.0413
S. pneumoniae D39V [4]	-0.0474
